In assay [1] the target is p97 (Homo sapiens, UniProt P55072). The experiment in a line: P97 ATPase biochemical assay (ADP Glo). The conditions noted are these: 20 nM p97, 20 μM ATP, 37° C. 15 minutes. On the procedure:
The ATPase assay is performed according the following protocol: Purified enzyme (20 nM p97), substrate (20 μM ATP) and a dose titration of compounds are mixed in buffer (50 mM TRIS pH 7.5, 20 mM MgCl2, 0.02% TX-100, 1 mM DTT, 0.2% (v/v) glycerol) and incubated at 37° C. for 15 minutes. The reaction is terminated and the level of product generated is measured using the ADP Glo Assay Kit (Promega, Madison Wis.). Plotting product generated versus compound concentration and using a four-parameter fit model generates an IC50 value for each compounds.
The p97 assay is an initial screening assay used to determine inhibitory activity of the fused pyrimidine compounds of the invention against the p97 complex. As discussed above, inhibition of activity of the p97 proteosome complex can enable apoptosis and cause elimination of neoplastic cells (cancer cells). The method follows that of Christianson in Nat.
Assay Buffer is a mixture of 50 mM TRIS pH 7.5, 20 mM MgCl2, 0.02% TX-100, 1 mM DTT and 0.2% (v/v) Glycerol. […] The identification kit is an ADP glo kit (Promega): stop buffer, detection reagent.
0.5 μL compound serial diluted in DMSO (Final Conc. 10%)
2 μL ATP (Final Conc.=20 uM, diluted in assay buffer)
2.5 μL p97 (Final Conc.=20 nM, diluted in assay buffer)
Incubate at 37 degC for 15 min.
Add 5 μL of stop buffer, incubate at RT for 40 min.
Add 10 μL of detection reagent, incubate at RT for 30 min.
Read luminescence on Envision plate reader.
Plot normalized luminescence data against log-transformed concentration values and fit to a sigmoidal curve to determine IC50 values (done in Collaborative Drug Discovery software).

The test system of assay [2] is K48-Ub, A549 cells. The assay is described as follows: A549 K48 cell intensity (immunofluorescence, high content imaging). As to conditions: Homo sapiens, 6 hr compound incubation. The format is cell-based. On the procedure:
Image-analysis is used to generate quantitative data from these assays that can be fit to a four-parameter sigmoid curve to derive IC50 values. Substrates of the ubiquitin-proteasome system, such as p53, are monitored after tumor cell lines are incubated with compounds for several hours. Accumulation of these proteins indicates an inhibition of proteasome-mediated degradation. Accumulation of lysine-48 chain linkage of poly-ubiquitin is also monitored by immunofluorescence as an indicator of ubiquitin-proteasome system inhibition. Both LC3 and SQSTM1 are mediators of autophagy. The localization and amounts of these proteins are monitored by immunofluorescence and report on the activity and inhibition of autophagy in response to p97 inhibition.
Day 1, Cell Plating to Establish Colonies of Cancer Cells • Cell Plating: • Seed cells ˜16 hrs prior to compound treatment • Plate 25 μL of A549 cells in every well of 384-well plate using multidrop. • Two (2) black plates for IF at 2500 cells/well • Let plate sit at room temp for 10-15 minutes prior to putting in incubator to allow cells to stick in middle of plate. • One (1) white plate for viability at 500 cells/well.

p97, sequence (P55072 whole entry): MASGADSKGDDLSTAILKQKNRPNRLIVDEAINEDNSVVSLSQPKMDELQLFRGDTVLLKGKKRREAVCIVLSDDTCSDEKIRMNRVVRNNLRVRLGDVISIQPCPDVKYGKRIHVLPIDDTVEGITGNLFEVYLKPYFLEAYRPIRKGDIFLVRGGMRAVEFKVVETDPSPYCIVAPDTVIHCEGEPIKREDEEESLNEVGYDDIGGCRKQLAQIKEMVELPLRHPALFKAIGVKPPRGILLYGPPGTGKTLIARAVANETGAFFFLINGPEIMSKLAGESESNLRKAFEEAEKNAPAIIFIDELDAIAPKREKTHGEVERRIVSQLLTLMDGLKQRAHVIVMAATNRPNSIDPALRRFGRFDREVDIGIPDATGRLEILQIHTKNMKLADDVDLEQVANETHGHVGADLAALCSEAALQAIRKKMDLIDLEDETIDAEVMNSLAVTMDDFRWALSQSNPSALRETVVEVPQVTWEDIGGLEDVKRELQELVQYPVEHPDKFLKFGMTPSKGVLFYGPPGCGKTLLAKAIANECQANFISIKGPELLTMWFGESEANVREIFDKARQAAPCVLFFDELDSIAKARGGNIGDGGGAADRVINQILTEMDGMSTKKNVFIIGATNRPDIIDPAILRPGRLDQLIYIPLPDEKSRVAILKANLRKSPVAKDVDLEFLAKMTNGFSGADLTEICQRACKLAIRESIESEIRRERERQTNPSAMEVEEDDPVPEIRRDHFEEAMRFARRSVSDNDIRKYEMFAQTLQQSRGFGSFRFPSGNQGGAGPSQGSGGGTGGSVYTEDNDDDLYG

Consider `Cc1cc2c(C(=O)O)cccc2n1-c1nc2c(c(NCc3ccccc3)n1)COCC2` [compound 107, 1-[4-(benzylamino)-5H,7H,8H-pyrano[4,3-d]pyrimidin-2-yl]-2-methyl-1H-indole-4-carboxylic acid], for which the IC50 was under 30 nM in assay [1] and under 10000 nM in assay [2].

For `COc1nc2c(C(N)=O)cccc2n1-c1nc2c(c(NCc3ccccc3)n1)CCCC2` [compound 114, 1-[4-(benzylamino)-5,6,7,8-tetrahydroquinazolin-2-yl]-2-methoxy-1H-1,3-benzodiazole-4-carboxamide], the IC50 in assay [1] is under 30 nM; in assay [2], under 10000 nM.

`COCCOc1cc2c(C#N)cccc2n1-c1nc2c(c(NCc3ccccc3)n1)CCCC2` [compound 137, 1-[4-(benzylamino)-5,6,7,8-tetrahydroquinazolin-2-yl]-2-(2-methoxyethoxy)-1H-indole-4-carbonitrile]: the IC50 in assay [1] is under 30 nM; in assay [2] it was under 10000 nM.

Regarding `Cc1cc2ccccc2n1-c1nc2c(c(NCc3ccccc3)n1)CCCC2` [compound 21, N-benzyl-2-(2-methyl-1H-indol-1-yl)-5,6,7,8-tetrahydroquinazolin-4-amine], the IC50 in assay [1] is under 300 nM; in assay [2], under 10000 nM.

On to `CCc1cc2c(C(N)=O)cccc2n1-c1nc2c(c(NCc3ccccc3)n1)COCC2` [compound 113, 1-[4-(benzylamino)-5H,7H,8H-pyrano[4,3-d]pyrimidin-2-yl]-2-ethyl-1H-indole-4-carboxamide], for which the IC50 in assay [1] is under 300 nM; in assay [2] it was under 10000 nM.

Consider `CNC(=O)c1cccc2c1cc(C)n2-c1nc2c(c(NCc3ccccc3)n1)COCC2` [compound 97, 1-[4-(benzylamino)-5H,7H,8H-pyrano[4,3-d]pyrimidin-2-yl]-N,2-dimethyl-1H-indole-4-carboxamide], for which the IC50 is under 100 nM in assay [1] and under 10000 nM in assay [2].

`Cc1cc2c(C(=O)NCCN)cccc2n1-c1nc2c(c(NCc3ccccc3)n1)COCC2` [compound 105, N-(2-aminoethyl)-1-[4-(benzylamino)-5H,7H,8H-pyrano[4,3-d]pyrimidin-2-yl]-2-methyl-1H-indole-4-carboxamide]: the IC50 was under 1000 nM in assay [1] and under 10000 nM in assay [2].

Turning to `NC(=O)c1cccc2c1cc(CO)n2-c1nc2c(c(NCc3ccccc3)n1)COCC2` [compound 96, 1-[4-(benzylamino)-5H,7H,8H-pyrano[4,3-d]pyrimidin-2-yl]-2-(hydroxymethyl)-1H-indole-4-carboxamide], the results for the IC50 in assay [1] and in assay [2] were under 100 nM and under 10000 nM, respectively.

`Cc1cc2c(CN)cccc2n1-c1nc2c(c(NCc3ccccc3)n1)CCCC2` [compound 124, 2-[4-(aminomethyl)-2-methyl-1H-indol-1-yl]-N-benzyl-5,6,7,8-tetrahydroquinazolin-4-amine]: the values for the IC50 in assay [1] and in assay [2] were under 100 nM and under 10000 nM, respectively.

As for `Cc1cc2c(C(N)=O)cccc2n1-c1nc2c(c(NCc3cccc(F)c3)n1)COCC2` [compound 136, 1-(4-{[(3-fluorophenyl)methyl]amino}-5H,7H,8H-pyrano[4,3-d]pyrimidin-2-yl)-2-methyl-1H-indole-4-carboxamide], the values for the IC50 in assay [1] and in assay [2] were under 30 nM and under 10000 nM, respectively.

For the compound `Cc1nc2c(C(N)=O)cccc2n1-c1nc2c(c(NCc3ccccc3)n1)COCC2` [compound 93, 1-[4-(benzylamino)-5H,7H,8H-pyrano[4,3-d]pyrimidin-2-yl]-2-methyl-1H-1,3-benzodiazole-4-carboxamide], the IC50 in assay [1] is under 100 nM; in assay [2], under 10000 nM.

Take `NC(=O)c1cccc2c1cc(C1CC1)n2-c1nc2c(c(NCc3ccccc3)n1)CCCC2` [compound 130, 1-[4-(benzylamino)-5,6,7,8-tetrahydroquinazolin-2-yl]-2-cyclopropyl-1H-indole-4-carboxamide]: the IC50 is under 30 nM in assay [1] and under 10000 nM in assay [2].

In the case of `CCc1cc2c(C(N)=O)cccc2n1-c1nc2c(c(NCc3ccccc3)n1)CCCC2` [compound 112, 1-[4-(benzylamino)-5,6,7,8-tetrahydroquinazolin-2-yl]-2-ethyl-1H-indole-4-carboxamide], the IC50 in assay [1] was under 100 nM; in assay [2] it was under 10000 nM.

As to `Cc1cc2c(C(N)=O)cccc2n1-c1nc2c(c(NCc3ccccc3)n1)CCCC2` [compound 90, 1-[4-(benzylamino)-5,6,7,8-tetrahydroquinazolin-2-yl]-2-methyl-1H-indole-4-carboxamide], the IC50 in assay [1] was under 30 nM; in assay [2], under 10000 nM.

With `Cc1cc2c(C(=O)O)cccc2n1-c1nc2c(c(NCc3ccccc3)n1)CCCC2` [compound 108, 1-[4-(benzylamino)-5,6,7,8-tetrahydroquinazolin-2-yl]-2-methyl-1H-indole-4-carboxylic acid], the results for the IC50 in assay [1] and in assay [2] were under 30 nM and under 10000 nM, respectively.

Turning to `NCc1cc2c(C(N)=O)cccc2n1-c1nc2c(c(NCc3ccccc3)n1)CCCC2` [compound 101, 2-(aminomethyl)-1-[4-(benzylamino)-5,6,7,8-tetrahydroquinazolin-2-yl]-1H-indole-4-carboxamide], the values for the IC50 in assay [1] and in assay [2] were under 30 nM and under 10000 nM, respectively.

On to `CC(C)c1cc2c(C(N)=O)cccc2n1-c1nc2c(c(NCc3ccccc3)n1)CCCC2` [compound 128, 1-[4-(benzylamino)-5,6,7,8-tetrahydroquinazolin-2-yl]-2-(propan-2-yl)-1H-indole-4-carboxamide], for which the IC50 in assay [1] is under 100 nM; in assay [2], under 10000 nM.

Turning to `COc1nc2c(C(N)=O)cccc2n1-c1nc2c(c(NCc3ccccc3)n1)COCC2` [compound 94, 1-[4-(benzylamino)-5H,7H,8H-pyrano[4,3-d]pyrimidin-2-yl]-2-methoxy-1H-1,3-benzodiazole-4-carboxamide], the IC50 is under 30 nM in assay [1] and under 10000 nM in assay [2].

On to `CNC(=O)c1cccc2c1cc(C)n2-c1nc2c(c(NCc3ccccc3)n1)CCCC2` [compound 132, 1-[4-(benzylamino)-5,6,7,8-tetrahydroquinazolin-2-yl]-N-methyl-2-methyl-1H-indole-4-carboxamide], for which the figures for the IC50 in assay [1] and in assay [2] were under 30 nM and under 10000 nM, respectively.

In the case of `CCNC(=O)c1cccc2c1cc(C)n2-c1nc2c(c(NCc3ccccc3)n1)CCCC2` [compound 134, 1-[4-(benzylamino)-5,6,7,8-tetrahydroquinazolin-2-yl]-N-ethyl-2-methyl-1H-indole-4-carboxamide], the IC50 in assay [1] is under 30 nM; in assay [2], under 10000 nM.

In the case of `Cc1cc2c(S(N)(=O)=O)cccc2n1-c1nc2c(c(NCc3ccccc3)n1)CCCC2` [compound 110, 1-[4-(benzylamino)-5,6,7,8-tetrahydroquinazolin-2-yl]-2-methyl-1H-indole-4-sulfonamide], the IC50 in assay [1] was under 100 nM; in assay [2], under 10000 nM.

`Cc1cc2c(S(C)(=O)=O)cccc2n1-c1nc2c(c(NCc3ccccc3)n1)CCCC2` [compound 111, N-benzyl-2-(4-methanesulfonyl-2-methyl-1H-indol-1-yl)-5,6,7,8-tetrahydroquinazolin-4-amine]: the figures for the IC50 in assay [1] and in assay [2] were under 100 nM and under 10000 nM, respectively.

As to `COc1nc2c(C#N)cccc2n1-c1nc2c(c(NCc3ccccc3)n1)COCC2` [compound 106, 1-[4-(benzylamino)-5H,7H,8H-pyrano[4,3-d]pyrimidin-2-yl]-2-methoxy-1H-1,3-benzodiazole-4-carbonitrile], the IC50 in assay [1] is under 300 nM; in assay [2], under 10000 nM.

In the case of `Cc1cc2c(CN)cccc2n1-c1nc2c(c(NCc3ccccc3)n1)COCC2` [compound 125, 2-[4-(aminomethyl)-2-methyl-1H-indol-1-yl]-N-benzyl-5H,7H,8H-pyrano[4,3-d]pyrimidin-4-amine], the IC50 in assay [2] is under 10000 nM.

For the compound `Cc1cc2c(-c3nnn[nH]3)cccc2n1-c1nc2c(c(NCc3ccccc3)n1)CCCC2` [compound 121, N-benzyl-2-[2-methyl-4-(1H-1,2,3,4-tetrazol-5-yl)-1H-indol-1-yl]-5,6,7,8-tetrahydroquinazolin-4-amine], in assay [1], the IC50 is under 30 nM.

In assay [1], `COc1nc2c(C(=O)O)cccc2n1-c1nc2c(c(NCc3ccccc3)n1)CCCC2` [compound 116, 1-[4-(benzylamino)-5,6,7,8-tetrahydroquinazolin-2-yl]-2-methoxy-1H-1,3-benzodiazole-4-carboxylic acid] had an IC50 of under 30 nM.
